In patent publication US10004723B2, “Aromatase inhibitor-releasing intravaginal device” (University of Saskatchewan, priority 2013, dated 2018):
Marks after values point to notes of the source that are not given here.

Key:
[1] = test system: bovine granulosa cells; test: Inhibition of estradiol production in bovine granulosa cell culture; type: cell-based; conditions: for concentration of estradiol compared with negative control (no FSH stimulation): letrozole 20 and 2 ng/mL, anastrozole 200 and 20 ng/mL, FSH-stimulated cells
Method: Inhibition of estradiol production by two aromatase inhibitors (letrozole and anastrozole) and a benzimidazole (fenbendazole) was tested in vitro using a bovine granulosa cell culture.
The granulosa cell culture protocol has been described previously (Zamberlam, Portela et al., 2011). Briefly, bovine ovaries were obtained at a local abattoir and transported to the lab where granulosa cells of antral follicles were collected by rinsing the follicle wall with Dulbecco's Modified Eagle Medium Nutrient Mixture F-12 (DMEMIF12, Invitrogen Life Technologies, Burlington, ON, Canada). Granullosa cells were maintained in culture for 6 days at 37° C. in 5% CO2, in 700 uL of culture medium (Zamberlam, Portela et al., 2011) which was replaced every 2 days. Cells were maintained in culture from Days 0 to 2, followed by the addition of 1 ng/mL of FSH from Days 2 to 4. On Day 4, depending on the treatment group, the culture medium was supplemented with 1 ng/mL FSH plus the estrogen inhibitor of interest, with FSH alone (positive control) or no FSH (negative control). On Day 6, the culture medium was collected and total protein was measured by the Bradford method (Bio-Rad, Mississauga, ON, Canada). Estradiol levels were determined by radioimmunoassay and expressed as total pg of estradiol per ug of protein.
Three different levels of each compound were tested. The standard concentration used for letrozole was 20 ng/mL. […] The standard dose of fenbendazole was based on a reported maximum concentration 160 ng/mL fenbendazole in plasma after a single oral administration of 7.5 mg/kg of body weight in cattle (Sanyal, 1994). Low and high doses of each aromatase inhibitor were arbitrarily set at standard concentration× 1/10 and standard concentration×10, respectively (Table 1).

[2] = single oral administration of 7.5 mg/kg of body weight in cattle (Sanyal, 1994); cited from earlier work
[3] = test system: MCF-7 cancer cell preparations; test: Reported IC50 in MCF-7 cancer cell preparations; design: species or system human; conditions: based on the reported IC50 values
[4] = test system: ovulation; test: Inhibition of ovulation in cattle; type: in vivo; conditions: treatment during the pre-ovulatory wave in cattle
[5] = test system: ovulation; test: Induction of ovulation in women; type: in vivo, human; conditions: women treated at 18 mm follicle diameter
[6] = test system: ovarian function in heifers; test: Example III: ovarian function and ovulation synchrony after letrozole device plus PGF and GnRH in heifers; type: in vivo, cattle; design: Degree of synchrony (residuals of the interval from GnRH to ovulation): unit not given here; conditions: for Dominant follicle diameter (mm) at day before ovulation: GnRH 24 h later, mean ± SEM; for Ovulation failure / Ovulation in relation to GnRH: Before / Ovulation in relation to GnRH: Synchronized: number of heifers
Description: (§1) Heifers were examined daily by transrectal ultrasonography to determined the interval to ovulation, which served as control data for comparison with the synchronizing effect of subsequent aromatase inhibitor treatment in the same animals. One heifer was excluded for further use due to aggressive behaviour and handling difficulty. At the time of ovulation (Day 0), heifers were assigned randomly to five groups (n=8-10/group) and given an intravaginal device with a wax-based plus gel coat formulation containing 3 g of letrozole (as described in Example 1) for 4 days starting on Day 0, 4, 8, 12, or 16. At the time of device removal, heifers were given 500 μg PGF followed by 100 μg of GnRH 24 h later (FIG. 10).
Ultrasound examinations were performed daily from two days before device insertion to 9 days after post-treatment ovulation. Observations from ultrasound examinations were recorded on a sketch sheet in which each ovary and its structures (CL and follicles a 4 mm in diameter) were represented by size and location. Ovulation was defined as the disappearance of a […] between successive examinations after GnRH treatment, and was confirmed by the subsequent detection of a CL [20]. The time of follicular wave emergence was defined as the day of ovulation, or retrospectively as the day when the dominant follicle was first identified at a diameter of 4 to 5 mm. If the dominant follicle was not identified until it reached 6 or 7 mm, the previous day was considered day of wave emergence. The dominant follicle of a wave was defined as the largest antral follicle of the wave. The day of onset of follicular and luteal regression was defined as the first day of an apparent progressive decrease in follicular and luteal diameters, respectively.
Statistical analyses were done using the Statistical Analysis System software package (SAS Learning Edition 9.1, 2006; SAS Institute Inc., Cary, N.C., USA). Time-series hormone data and follicular diameter profiles were analyzed by analysis of variance for repeated measures using the PROC MIXED procedure to determine the effects of day of treatment (0, 4, 8, 12, and 16), time, and their interactions. Individual time-point comparisons among groups were compared using the least significant difference (LSD) test. Single-point measurements (dominant follicle diameter at device insertion, pre-ovulatory follicle diameter, CL diameter 9 days after the post-treatment ovulation and interval from GnRH treatment to ovulation) were analyzed by one-way analysis of variance. The proportion of heifers that ovulated were compared by Chi-Square test. The degree of synchrony among groups was compared by analysis of variance of the residuals of the interval from GnRH to ovulation. Significance was defined as P≤0.05.

[7] = test system: MCF-7 cancer cell preparations; conditions: reported (Kudoh 1996; Bhatnagar 2007), read-out: half maximal inhibitory concentration (IC50); cited from earlier work
[8] = test system: plasma estradiol; test: Example III: plasma estradiol at device removal in heifers; type: in vivo, cattle
Description: as §1, with “One heifer was excluded for further use due to aggressive behaviour and handling difficulty.” left out
Blood samples were collected by coccygeal venipuncture into 10 mL heparinized vacuum tubes (Becton Dickinson Vacutainer Systems, Franklin Lakes, N.J., USA). Samples were collected at the time of device removal for estradiol measurement, and at 3, 6 and 9 days following the post-treatment ovulation to determine progesterone concentrations: Additionally, blood samples were collected on Days 4, 8, 12, and 16 from heifers included in Group 16 (Day 0=ovulation) to serve as control data for comparison of estradiol concentrations at the time of device removal in other treatment groups (Groups 0, 4, 8, and 12). […] Blood samples were centrifuged at 1500×g for 20 min and plasma was separated and stored in plastic tubes at −20° C. until assayed.
Plasma concentrations of estradiol were determined using a commercial radioimmunoassay kit (Double Antibody Estradiol; Diagnostic Products, Los Angeles, Calif., USA). The procedure was carried out in the Department of Animal Health and Biomedical Sciences, University of Wisconsin-Madison, as described, with the following modifications: Standards (0.78-100 pg/mL) were prepared in steroid-free (charcoal-treated) bovine plasma. The standards (250 μL in duplicate) and plasma samples (500 μL in duplicate) were extracted with 3 mL of diethyl ether, frozen in a dry-ice/methanol bath, decanted into assay tubes, and dried overnight under a fume hood. The dried samples and standards were re-suspended with 100 μL of assay buffer (0.1% gelatin in PBS).

[9] = letrozole groups combined, letrozole device added to PGF-GnRH protocol

## COC(=O)Nc1nc2ccc(Sc3ccccc3)cc2[nH]1 [Fenbendazole, fenbendazole]
[1]; at the levels tested
  reduction of estradiol secretion by FSH-stimulated granulosa cells: did not reduce estradiol secretion significantly
[2]
  maximum concentration in plasma: 160 ng/mL

## N#Cc1ccc(C(c2ccc(C#N)cc2)n2cncn2)cc1 [Letrozole, letrozole]
[3]
  potency relative to anastrozole: approximately 11 times
[1]
  dose at which estradiol synthesis was reduced to that of non-FSH-stimulated cells: 20 ng/mL
  concentration of estradiol compared with negative control (no FSH stimulation): did not differ from that of the negative control
[4]
  delay of ovulation: 24 h
[5]
  ovulation earlier than controls: 24 h
[6]; 3 g letrozole device 4 days from Day 0, PGF at removal
  Dominant follicle diameter (mm) at day before ovulation: 12.8 ± 0.58^a mm
[6]; 3 g letrozole device 4 days from Day 4, PGF at removal
  Dominant follicle diameter (mm) at day before ovulation: 16.4 ± 0.78^b mm
[6]; 3 g letrozole device 4 days from Day 8, PGF at removal
  Dominant follicle diameter (mm) at day before ovulation: 14.5 ± 0.83^ab mm
[6]; 3 g letrozole device 4 days from Day 12, PGF at removal
  Dominant follicle diameter (mm) at day before ovulation: 14.2 ± 0.48^ab mm
[6]; 3 g letrozole device 4 days from Day 16, PGF at removal
  Dominant follicle diameter (mm) at day before ovulation: 11.7 ± 0.59^a mm
[6]; 9 days post-letrozole treatment ovulation
  heifers with CL of normal diameter at last observation (percent): 62.5%
[6]; Letrozole groups combined
  Days from GnRH treatment to ovulation: 1.9 ± 0.08 days
  Degree of synchrony (residuals of the interval from GnRH to ovulation): 0.24 ± 0.07
  Ovulation failure (percent): 6%
  Ovulation in relation to GnRH: Before (percent): 12%
  Ovulation in relation to GnRH: Synchronized (percent): 81%
  Ovulation failure: 3
  Ovulation in relation to GnRH: Before: 6
  Ovulation in relation to GnRH: Synchronized: 39
[6]; by 9 days after ovulation
  heifers that underwent luteolysis prior to the last observation (percent): 37.5%
[6]; by 9 days after ovulation, number of 48 heifers
  heifers that underwent luteolysis prior to the last observation: 18
[6]; [9]
  Proportion that ovulated (heifers/treated): 42/48
  Proportion that ovulated (percent): 87.1%
[6]; treatment initiated on Day 0
  Ovulation failure: 0
  Ovulation in relation to GnRH: Before: 0
  Ovulation in relation to GnRH: Synchronized: 10
[6]; treatment initiated on Day 4
  Ovulation failure: 0
  Ovulation in relation to GnRH: Before: 3
  Ovulation in relation to GnRH: Synchronized: 7
[6]; treatment initiated on Day 8
  Ovulation failure: 1
  Ovulation in relation to GnRH: Before: 0
  Ovulation in relation to GnRH: Synchronized: 7
[6]; treatment initiated on Day 12
  Ovulation failure: 1
  Ovulation in relation to GnRH: Before: 0
  Ovulation in relation to GnRH: Synchronized: 10
[6]; treatment initiated on Day 16
  Ovulation failure: 1
  Ovulation in relation to GnRH: Before: 3
  Ovulation in relation to GnRH: Synchronized: 5
[7]
  IC50: 0.07 nM
[8]; Group 0 (P=0.02)
  estradiol concentrations at device removal compared to respective controls: lower
[8]; Group 4 (P=0.05)
  estradiol concentrations at device removal compared to respective controls: lower
[8]; Group 8 (P=0.1)
  estradiol concentrations at device removal compared to respective controls: tended to be lower
[8]; Group 12 (P=0.9)
  estradiol concentrations at device removal compared to respective controls: not different from Day 12 controls
[8]; all letrozole-treated groups
  estradiol concentration at device removal (average): 2.1 ± 0.24 pg/mL

## CC(C)(C#N)c1cc(Cn2cncn2)cc(C(C)(C)C#N)c1 [Anastrozole, anastrozole]
[1]
  dose at which estradiol synthesis was reduced to that of non-FSH-stimulated cells: 200 ng/mL
  concentration of estradiol compared with negative control (no FSH stimulation): did not differ from that of the negative control
[7]
  IC50: 0.82 nM
